Results from patent US7745657B2, “D-homoandrosta-17-yl carbamate derivatives as selective glucocorticoid receptor ligands” (Merck Sharp & Dohme Corp., priority 2005, dated 2010).

Molecular target: T1, human GR (Homo sapiens, UniProt P04150)
T1 construct: U937 cells contain an endogenous glucocorticoid receptor (GR); endogenous in cells; host or cells: U937 cells stably transfected with the TNF-alpha promoter / beta-lactamase reporter
T1 sequence (P04150 1-777): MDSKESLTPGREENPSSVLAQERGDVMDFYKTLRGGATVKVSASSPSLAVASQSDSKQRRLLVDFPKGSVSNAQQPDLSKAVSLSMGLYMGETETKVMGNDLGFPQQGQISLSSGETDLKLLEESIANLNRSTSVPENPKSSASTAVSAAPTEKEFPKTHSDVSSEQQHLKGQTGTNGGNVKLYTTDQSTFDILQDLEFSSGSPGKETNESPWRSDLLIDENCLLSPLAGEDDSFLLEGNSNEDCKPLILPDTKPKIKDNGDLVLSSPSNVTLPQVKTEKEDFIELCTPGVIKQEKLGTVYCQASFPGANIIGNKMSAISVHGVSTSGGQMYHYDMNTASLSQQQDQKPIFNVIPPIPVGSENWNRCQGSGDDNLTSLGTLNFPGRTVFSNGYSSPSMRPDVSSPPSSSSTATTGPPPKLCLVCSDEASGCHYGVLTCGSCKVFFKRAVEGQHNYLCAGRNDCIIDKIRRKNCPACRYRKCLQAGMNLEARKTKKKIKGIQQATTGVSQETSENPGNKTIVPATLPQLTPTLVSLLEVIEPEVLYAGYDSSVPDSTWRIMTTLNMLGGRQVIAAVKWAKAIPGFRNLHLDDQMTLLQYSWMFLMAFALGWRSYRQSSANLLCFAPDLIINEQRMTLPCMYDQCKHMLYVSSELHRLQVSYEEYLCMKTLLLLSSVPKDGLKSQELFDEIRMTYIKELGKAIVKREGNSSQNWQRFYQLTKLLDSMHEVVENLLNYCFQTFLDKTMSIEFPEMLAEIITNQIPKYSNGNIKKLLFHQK
Test: Transrepression assay, TNFα-β-lactamase reporter gene in U937 cells
Type: cell-based
Settings: U-937, PMA/LPS stimulated, activity repressed by 100 nM dexamethasone alone set as 100%, read-out: maximal activity
Excerpt: This assay assesses the ability of test compounds to control transcription from the TNFα-β-lactamase reporter gene in U937 cells, a human myelomonocytic leukemia cell line that naturally expresses the human GR. The assay measures compound dependent-repression of the TNFα promoter linked to a reporter gene.
The human U937 cells that had been stablely transfected with the TNF-αpromoter driving β-lactamase are used for this assay. U937 cells contain an endogenous glucocorticoid receptor (GR). Cells are maintained in RPMI 1640 Growth medium (Gibco Cat#11875-093) containing 25 mM HEPES, 10% FBS, 2 mM L-Glutamine, 1 mM Sodium pyruvate, 25 μg/ml Gentamicin (Gibco Cat#15710-064), 1:1000 2-Mercaptoethanol (Gibco Cat#21985-023) and 0.8 mg/ml G418 (Gibco Cat#10131-027). The density of the cells in the flask needs to be about 1×10^6−3×10^6/ml at the time of harvest. Usually, the cells are split to 1.2˜1.4×10^5/ml (1:10) 3 days prior to the assay. 50,000 cells/well are plated in 96 well black-walled plates the day of assay. Test compounds are added 10 μL/well, and cells are incubated at 37° C. for 30˜45 min. For assaying compounds, first dilute 1:10 in DMSO to make 1 mM, then further dilute 1:100 in medium to make 10× stock prior to adding to the cells. Add 50 ng/ml PMA (Sigma, cat# P8139) 10 μL/well to a final concentration 5 ng/ml, and 1 μg/ml LPS (Sigma, cat# L4130) 10 μL/well to a final concentration 100 ng/ml. Incubate cells at 37° C. overnight for ˜18 hr. PMA is stored frozen as 100 μg/ml stock in DMSO. Dilute 1:10 in DMSO for a working stock of 10 μg/ml and store at −20 C. For assaying, dilute the 10 μg/ml working stock 1:200 in medium to make a 10× solution (50 ng/ml). Store frozen LPS at 1 mg/ml in PBS, dilute 1:1000 in medium to make 10× (1 μg/ml) for the assay. Add 6× loading buffer (CCF2-AM) 20 μL/well, and incubate at room temperature for 70˜90 min. […] The activity repressed by 100 nM dexamethasone alone is set as 100% activity.

Structure (SMILES) | Emax
CCCC(C)NC(=O)OC1(CO)C(=O)C2(C)CC(O)C3(F)C(CCC4=CC(=O)C=CC43C)C2CC1C [Example 2, (11β,16β,17α)-9-fluoro-11-hydroxy-16-methyl-3,17a-dioxo-17-(hydroxymethyl)-D-homoandrosta-1,4-dien-17-yl-(2-pentyl)carbamate] | > 5%
CCCC(C)CNC(=O)OC1(CO)C(=O)C2(C)CC(O)C3(F)C(CCC4=CC(=O)C=CC43C)C2CC1C [Example 3, (11β,16β,17α)-9-fluoro-11-hydroxy-16-methyl-3,17a-dioxo-17-(hydroxymethyl)-D-homoandrosta-1,4-dien-17-yl-(2-methyl-pentyl)carbamate] | > 5%
CC(=O)OCC1(OC(=O)NC23CC4CC(CC(C4)C2)C3)C(=O)C2(C)CC(OC(=O)C(F)(F)F)C3(F)C(CCC4=CC(=O)C=CC43C)C2CC1C [Example 5, (11β,16β,17α)-9-fluoro-11-trifluoroacetoxy-16-methyl-3,17a-dioxo-17-[(acety1oxy)methy1]-D-homoandrosta-1,4-dien-17-yl-(1-adamantyl)carbamate] | > 5%
CC1CC2C3CCC4=CC(=O)C=CC4(C)C3(F)C(OC(=O)C(F)(F)F)CC2(C)C(=O)C1(CO)OC(=O)NC12CC3CC(CC(C3)C1)C2 [Example 7, (11β,16β,17α)-9-fluoro-11-trifluoroacetoxy-16-methyl-3,17a-dioxo-17-(hydroxymethyl)-D-homoandrostra-1,4-dien-17-yl-(1-adamantyl)carbamate] | > 5%

Other lines, results leading:

Emax | Structure (SMILES)
> 5% | C[C@H]1CC2C3CCC4=CC(=O)C=C[C@]4(C)[C@@]3(F)[C@@H](O)C[C@]2(C)C(=O)[C@]1(CO)OC(=O)NC12CC3CC(CC(C3)C1)C2 (stereo partly drawn) [Example 1, (11β,16β,17α)-9-fluoro-11-hydroxy-16-methyl-3,17a-dioxo-17-(hydroxymethyl)-d-homoandrosta-1,4-dien-17-yl-(1-adamantyl)carbamate]
> 5% | CC(=O)OCC1(OC(=O)NC23CC4CC(CC(C4)C2)C3)C(=O)C2(C)CC(O)C3(F)C(CCC4=CC(=O)C=CC43C)C2CC1C [Example 6, (11β,16β,17α)-9-fluoro-11-hydroxy-16-methyl-3,17a-dioxo-17-[(acetyloxy)methyl]-D-homoandrosta-1,4-dien-17-yl-(1-adamantyl)carbamate]
> 5% | CC1CC2C3CCC4=CC(=O)C=CC4(C)C3(F)C(O)CC2(C)C(=O)C1(CO)OC(=O)NC1CCCCC1 [Example 9, (11β,16β,17α)-9-fluoro-11-hydroxy-16-methyl-3,17a-dioxo-17-(hydroxymethyl)-D-homoandrosta-1,4-dien-17-yl-(cyclohexyl)carbamate]
